Measurements taken from patent US6458357B1, “Retro-inverso neurotrophic and analgesic peptides” (Myelos Corporation, priority 1997, dated 2002).
“Also recorded” adds a separate entry of the source. Where a SMILES comes first, the peptide text is derived from it. Where no end group is shown, it is not given here. [ ]: non-standard residue; d: D form.

Assays:
neurite outgrowth = conditions: system not specified; cited from earlier work
[1] = in vivo; cited from earlier work
neuroblastoma cells [2] = conditions: cited from earlier work
neuroblastoma cells [3] = conditions: neuroblastoma cells in vitro; cited from earlier work
[4] = test system: mouse cerebellar explants; conditions: cited from earlier work
[5] = test system: choline acetyltransferase activity; conditions: neuroblastoma cells in vitro; cited from earlier work
[6] = Integrity (intactness) of peptide D4 in organs by HPLC 60 minutes after injection; type: in vivo, rat
Protocol: In another study, an aliquot of brain, liver, lung and kidney was taken 60 minutes after injection for HPLC analyses (Vydac C4 column) to determine the integrity (intactness) of the peptide in brain, blood and kidney. Peptide D4 was 95% intact in these organs, indicating the in vivo stability of this peptide after 60 minutes. The peak at 16 min. is intact D4; a breakdown product peak is evident at 4 min.

[7] = Localization of 125I-labelled peptide D4 in organs after intramuscular injection
Protocol: After 20 min., the rat was anesthetized, perfused with PBS and the organs removed and counted in a gamma counter.

[8] = test system: newborn mouse cerebellar explants; experiment: Ex vivo myelination assay in newborn mouse cerebellar explants; type: cell-based; conditions: added on second day, observed for 22 days in culture; saposin C positive control 1-10 μg/ml
Protocol: Newborn mouse cerebellar explants are prepared according to Satomi (Zool. Sci. 9:127-137, 1992). Neurite outgrowth and myelination are observed for 22 days in culture, during the period when the newborn mouse cerebellum normally undergoes neuronal differentiation and myelination begins. D2, D3, D4, D5 or another peptide including SEQ ID NO: 12 is added on the second day after preparation of the explants (three control and three treated explants) and outgrowth of neurites and myelination are assessed under a bright field microscope with a video camera. Saposin C is used as a positive control at a concentration of between about 1 and 10 μg/ml.

[9] = test system: NS20Y neuroblastoma cells; experiment: NS20Y neuroblastoma neurite outgrowth assay; type: cell-based; conditions: for neurite outgrowth (neuritogenic activity): 0.5-8 ng/ml peptide, 24 hours, DMEM 0.5% FCS
Protocol: NS20Y neuroblastoma cells were grown in DMEM containing 10% fetal calf serum (FCS). Cells were removed with trypsin and plated in 30 mm petri dishes onto glass coverslips. After 20-24 hours, the medium was replaced with 2 ml DMEM containing 0.5% FCS plus 0, 0.5, 1, 2, 4 or 8 ng/ml effector peptides. Cells were cultured for an additional 24 hours, washed with PBS and fixed with Bouin's solution (saturated aqueous picric acid/formalin/acetic acid 15:5:1) for 30 minutes. Fixative was removed with PBS and neurite outgrowth was scored under a phase contrast microscope. […] At least 200 cells were scored in different portions of each dish to determine the percentage of neurite bearing cells and assays were performed in duplicate.
Increased neurite outgrowth was evident using as little as 0.5 ng/ml peptide.

[10] = test system: NS20Y neuroblastoma cells; experiment: Cell death assay, trypan blue staining of NS20Y cells in low serum; type: cell-based; conditions: for reduction of the number of trypan blue-positive (dead) cells: NS20Y cells, 8 ng/ml peptide, 2 days in 0.5% fetal bovine serum; for prevention of cell death: neuroblastoma cells in culture
Protocol: NS20Y cells were plated as described in Example 1 and grown on glass coverslips in 0.5% fetal bovine serum for 2 days in the presence or absence of 8 ng/ml effector peptides. Media was removed and 0.2% trypan blue in PBS was added to each well. Blue-staining dead cells were scored as a percentage of the total on an inverted microscope, counting 400 cells in four areas of each well. The average error of duplicates was ±5%.

**Q.** For “18-mer: YKEVTKLIDNNKTEKEIL; SEQ ID NO: 2; within the active 22-mer of saposin C, V replaced by Y (Homo Sapien)”, which neurite outgrowth (neurite outgrowth) is on record?
**A.** Its neurite outgrowth is “promotes neurite outgrowth”.

**Q.** What about the “crossing of the blood-brain barrier” value [1] of the same molecule?
**A.** The value was “crosses the blood brain barrier; also recorded: able to cross the blood-brain barrier”.

**Q.** With “22-mer: CEFLVKEVTKLIDNNKTEKEIL; SEQ ID NO: 1; amino acids 8-29 of human saposin C (Homo Sapien)” as the molecule, how does the neurite outgrowth (neuroblastoma cells [2]) read?
**A.** Its neurite outgrowth is “stimulates neurite outgrowth”.

**Q.** And the “prevention of cell death” value (neuroblastoma cells [3])?
**A.** Its value is “prevented cell death”.

**Q.** And the neurite outgrowth [4]?
**A.** The neurite outgrowth was “stimulates neurite outgrowth”.

**Q.** What about the choline acetyltransferase activity [5] of the same molecule?
**A.** The choline acetyltransferase activity was “stimulates choline acetyltransferase activity”.

**Q.** Which in vivo stability ([6]; 60 minutes after injection) does the source give for `CC(C)C[C@@H](NC(=O)[C@@H](CC(C)C)NC(=O)[C@@H](CC(=O)O)NC(=O)[C@@H](CC(N)=O)NC(=O)[C@@H](CC(N)=O)NC(=O)[C@@H](C)NC(=O)[C@H](NC(=O)[C@@H](CCC(=O)O)NC(=O)[C@@H](CCC(=O)O)NC(=O)[C@@H](CC(C)C)NC(=O)[C@@H](CC(C)C)NC(=O)[C@H](N)Cc1ccc(O)cc1)[C@H](C)O)C(=O)O` [peptide D4] (H-[dY][dL][dL][dE][dE][dT][dA][dN][dN][dD][dL][dL]-OH; N-terminus and C-terminus assumed) here?
**A.** The in vivo stability was “stable in vivo”.

**Q.** And the “crossing of the blood brain barrier” value ([6]; after intramuscular injection, rat)?
**A.** Its value is “crosses the blood brain barrier in amounts sufficient to exert a therapeutic effect”.

**Q.** And the “presence of peptide in the brain” value ([7]; after intramuscular injection into a rat)?
**A.** The value was “significant amounts”.

**Q.** What about the “concentration in brain relative to required neurotrophic dose for neural cells determined in vitro” value ([7]; brain, 20 min after 200 μg/kg intramuscular, rat) of the same molecule?
**A.** Its value is “approximately 20 times”.

**Q.** Which results are given for “D3: retro-inverso peptide YLEETANNDLLAT; SEQ ID NO: 11 ([dY][dL][dE][dE][dT][dA][dN][dN][dD][dL][dL][dA][dT]; also: retro-inverso)”?
**A.** stimulation of myelination [8]: to a similar extent as with saposin C; neurite outgrowth (neuritogenic activity) [9]: promoted neurite outgrowth in vitro

**Q.** Which results are given for “TX14(A): TXLIDNNATEEILY, X=D-alanine; SEQ ID NO: 4; modified 15-mer of human saposin C (T[dA]LIDNNATEEILY) [TX…, X=D-alanine; modified 15-mer of human saposin C, reference compound]”?
**A.** neurite outgrowth (neuritogenic activity) [9]: exhibited neuritogenic activity; also recorded: induced neurite outgrowth; reduction of the number of trypan blue-positive (dead) cells [10]: about 50%; prevention of cell death [10]: prevented cell death in neuroblastoma cells in culture to the same extent

**Q.** Which stimulation of myelination [8] does the source give for “peptide D2: YLIEETANNDILAT, all D-amino acids; SEQ ID NO: 5; retro-inverted TX14(A) ([dY][dL][dI][dE][dE][dT][dA][dN][dN][dD][dI][dL][dA][dT]; also: retro-inverted)” here?
**A.** The stimulation of myelination was “to a similar extent as with saposin C”.

**Q.** What about the “neurite outgrowth activity compared with TX14(A)” value [9] of the same molecule?
**A.** The value was “slightly more active that TX14(A); also recorded: slightly more effective than TX14(A)”.

**Q.** What about the “neurite outgrowth (neuritogenic activity)” value [9] of the same molecule?
**A.** The value was “exhibited neuritogenic activity; also recorded: induced neurite outgrowth”.

**Q.** And the “reduction of the number of trypan blue-positive (dead) cells” value [10]?
**A.** The value was “about 50%”.

**Q.** And the “prevention of cell death” value [10]?
**A.** Its value is “prevented cell death in neuroblastoma cells in culture to the same extent”.

**Q.** With “rat 14-mer: rat 14-mer derived from the saposin C active sequence, SELIINNATEELLY; SEQ ID NO: 6 (Homo Sapien) [reference compound]” as the molecule, how does the “neurite outgrowth (neuritogenic activity)” value [9] read?
**A.** Its value is “induced neurite outgrowth”.

B1: saposin C: small heat-stable glycoprotein generated by proteolytic processing of prosaposin (protein, UniProt P07602 311-390, looked up)
Saposin-C: SDVYCEVCEFLVKEVTKLIDNNKTEKEILDAFDKMCSKLPKSLSEECQEVVDTYGSSILSILLEEVSPELVCSMLHLCSG
modifications: Saposin-C
**Q.** Which myelination (neurite outgrowth) does the source give for B1 here?
**A.** Its myelination is “promote increased myelination”.

**Q.** And the neurite outgrowth (neurite outgrowth)?
**A.** Its neurite outgrowth is “stimulate neurite outgrowth”.
